Activity calls are given as the source filed them.
Experiments:
Format in all cases: functional, cell-based
A549 = assay: Cytotoxicity against human A549 cells at 60 ug/ml after 72 hrs by MTT assay
HepG2 = assay: Cytotoxicity against human HepG2 cells at 60 ug/ml after 72 hrs by MTT assay
MDA-MB-231 = assay: Cytotoxicity against human MDA-MB-231 cells at 60 ug/ml after 72 hrs by MTT assay

Measured: Activity

CC1=C/C(=C2\CCCN3CCC[C@H]23)OC1=O
inactive: all assays above

CC1=C/C(=C2/CCCN3CCC[C@H]23)OC1=O
inactive: all assays above

Reference: ChEMBL document CHEMBL3616370, “Pandalisines A and B, novel indolizidine alkaloids from the leaves of Pandanus utilis” (Bioorg Med Chem Lett, 2015)
